How the values were obtained:
Assay type in all cases: in vivo
[1] = system: Diabrotica Balteata (Corn Root Worm); test: Diabrotica balteata on maize sprouts, spray; details: 96 h, application rate 200 ppm, L2 larvae on maize sprouts, 4 days after infestation, read-out: effect in at least one of the two categories (mortality or growth inhibition)
Experimental: Maize sprouts placed onto an agar layer in 24-well microtiter plates were treated with aqueous test solutions prepared from 10′000 ppm DMSO stock solutions by spraying. After drying, the plates were infested with L2 larvae (6 to 10 per well). The samples were assessed for mortality and growth inhibition in comparison to untreated samples 4 days after infestation.
(§1) The following compounds gave an effect of at least 80% in at least one of the two categories (mortality or growth inhibition) at an application rate of 200 ppm: […]

[2] = system: Euschistus heros (Neotropical Brown Stink Bug); test: Euschistus heros on soybean leaves, spray; details: 120 h, application rate 200 ppm, N2 nymphs on soybean leaves, 5 days after infestation, read-out: effect in at least one of the two categories (mortality or growth inhibition)
Experimental: Soybean leaves on agar in 24-well microtiter plates were sprayed with aqueous test solutions prepared from 10′000 ppm DMSO stock solutions. After drying the leaves were infested with N2 nymphs. The samples were assessed for mortality and growth inhibition in comparison to untreated samples 5 days after infestation.
as §1

[3] = system: Plutella xylostella (Diamond Back Moth); test: Plutella xylostella on artificial diet; details: 120 h, application rate 200 ppm, L2 larvae on artificial diet, 5 days after infestation, read-out: effect in at least one of the two categories (mortality or growth inhibition)
Experimental: 24-well microtiter plates with artificial diet were treated with aqueous test solutions prepared from 10′000 ppm DMSO stock solutions by pipetting. After drying, the plates were infested with L2 larvae (10 to 15 per well). The samples were assessed for mortality and growth inhibition in comparison to untreated samples 5 days after infestation.
as §1

[4] = system: Spodoptera littoralis (Egyptian Cotton Leaf Worm); test: Spodoptera littoralis on cotton leaf discs, spray; details: foliar, 72 h, application rate 200 ppm, L1 larvae on cotton leaf discs, 3 days after infestation
Experimental: Cotton leaf discs were placed onto agar in 24-well microtiter plates and sprayed with aqueous test solutions prepared from 10′000 ppm DMSO stock solutions. After drying the leaf discs were infested with five L1 larvae. The samples were assessed for mortality, anti-feeding effect, and growth inhibition in comparison to untreated samples 3 days after infestation. Control of Spodoptera littoralis by a test sample is given when at least one of the categories mortality, anti-feedant effect, and growth inhibition is higher than the untreated sample.

[5] = system: Spodoptera littoralis (Egyptian Cotton Leaf Worm); test: Spodoptera littoralis, uptake by lettuce roots from agar; details: 144 h, test rate 12.5 ppm, compound absorbed by lettuce roots, 6 days after infestation, read-out: effect in at least one of the three categories (mortality, anti-feeding, or growth inhibition)
Text: Test compounds were applied by pipette from 10′000 ppm DMSO stock solutions into 24-well plates and mixed with agar. Lettuce seeds were placed onto the agar and the multi well plate was closed by another plate which contained also agar. After 7 days the compound was absorbed by the roots and the lettuce grew into the lid plate. The lettuce leaves were then cut off into the lid plate. Spodoptera eggs were pipetted through a plastic stencil onto a humid gel blotting paper and the lid plate was closed with it. The samples were assessed for mortality, anti-feedant effect and growth inhibition in comparison to untreated samples 6 days after infestation.
The following compounds gave an effect of at least 80% in at least one of the three categories (mortality, anti-feeding, or growth inhibition) at a test rate of 12.5 ppm: A3, A4, A5, A6, A8, A10, B3, B4, B5 and C2.

[6] = system: Tetranychus urticae (Two-Spotted Spider Mite); test: Tetranychus urticae feeding/contact activity on bean leaf discs; details: foliar, 192 h
Experimental: Feeding/contact activity Bean leaf discs on agar in 24-well microtiter plates were sprayed with aqueous test solutions prepared from 10′000 ppm DMSO stock solutions. After drying the leaf discs were infested with a mite population of mixed ages. The samples were assessed for mortality on mixed population (mobile stages) 8 days after infestation.

[7] = system: Aedes aegypti (Yellow Fever Mosquito); test: Aedes aegypti adult contact test on dried deposits; details: application rate 200 ppm in ethanol, adult females, after 48 h and/or 24 h
Experimental: Test solutions, at an application rate of 200 ppm in ethanol, were applied to 12 well tissue culture plates. Once the deposits were dry, five, two to five day old adult female Aedes aegypti were added to each well, and sustained with a 10% sucrose solution in a cotton wool plug. Assessment of knockdown was made one hour after introduction, and mortality was assessed at 24 and 48 hours after introduction.
The following compounds gave at least 80% control of Aedes aegypti after 48 h and/or 24 h: […]

[8] = system: Myzus persicae (Green Peach Aphid); test: Myzus persicae intrinsic activity (sucrose solution, Parafilm); details: 120 h, test rate 12 ppm, 5 days after infestation
Experimental: Intrinsic activity Test compounds prepared from 10′000 ppm DMSO stock solutions were applied by pipette into 24-well microtiter plates and mixed with sucrose solution. The plates were closed with a stretched Parafilm. A plastic stencil with 24 holes was placed onto the plate and infested pea seedlings were placed directly on the Parafilm. The infested plate was closed with a gel blotting paper and another plastic stencil and then turned upside down. The samples were assessed for mortality 5 days after infestation.

[9] = system: Myzus persicae (Green Peach Aphid); test: Myzus persicae feeding/contact activity on sunflower leaf discs; details: foliar, 144 h, application rate 200 ppm, aphid population of mixed ages on sunflower leaf discs, 6 days after infestation
Experimental: Feeding/Contact activity Sunflower leaf discs were placed onto agar in a 24-well microtiter plate and sprayed with aqueous test solutions prepared from 10′000 ppm DMSO stock solutions. After drying, the leaf discs were infested with an aphid population of mixed ages. The samples were assessed for mortality 6 days after infestation.

[10] = system: Bemisia tabaci (Cotton White Fly); test: Bemisia tabaci feeding/contact activity on cotton leaf discs; details: foliar, 144 h, application rate 200 ppm, adult white flies on cotton leaf discs, 6 days after incubation
Experimental: Feeding/contact activity Cotton leaf discs were placed on agar in 24-well microtiter plates and sprayed with aqueous test solutions prepared from 10′000 ppm DMSO stock solutions. After drying the leaf discs were infested with adult white flies. The samples were checked for mortality 6 days after incubation.

CCSc1c(-c2nc3cc(SC(F)(F)F)cnc3n2C)sc2cc(Br)ccc12 [Compound A3, 2-(6-bromo-3-ethylsulfanyl-benzothiophen-2-yl)-3-methyl-6-(trifluoromethylsulfanyl)imidazo[4,5-b]pyridine]
≥ 80%: percent effect (mortality or growth inhibition) at 200 ppm [1] | percent effect (mortality or growth inhibition) at 200 ppm [2] | percent effect (mortality or growth inhibition) at 200 ppm [3] | percent control (mortality, anti-feedant effect or growth inhibition) at 200 ppm [4] | percent effect (mortality, anti-feeding or growth inhibition) at 12.5 ppm [5] | mortality at 200 ppm [6] | pest or weed control at 200 ppm [7]

CCSc1c(-c2nc3cc(C(F)(F)F)ncc3n2C)sc2cc(C(F)(F)F)ccc12 [Compound B3, 2-[3-ethylsulfanyl-6-(trifluoromethyl)benzothiophen-2-yl]-3-methyl-6-(trifluoromethyl)imidazo[4,5-c]pyridine]
≥ 80%: percent effect (mortality or growth inhibition) at 200 ppm [1] | percent effect (mortality or growth inhibition) at 200 ppm [2] | mortality at 12 ppm [8] | percent effect (mortality or growth inhibition) at 200 ppm [3] | percent control (mortality, anti-feedant effect or growth inhibition) at 200 ppm [4] | percent effect (mortality, anti-feeding or growth inhibition) at 12.5 ppm [5] | pest or weed control at 200 ppm [7]

CCSc1c(-c2nc3cnc(C(F)(F)F)cc3n2C)sc2ccccc12 [Compound B1, 2-(3-ethylsulfanylbenzothiophen-2-yl)-1-methyl-6-(trifluoromethyl)imidazo[4,5-c]pyridine]
≥ 80%: percent effect (mortality or growth inhibition) at 200 ppm [1] | mortality at 200 ppm [9] | mortality at 12 ppm [8] | percent effect (mortality or growth inhibition) at 200 ppm [3]

CCS(=O)(=O)c1c(-c2nc3cc(SC(F)(F)F)ncc3n2C)sc2cc(Br)ccc12 [Compound B5, 2-(6-bromo-3-ethylsulfonyl-benzothiophen-2-yl)-3-methyl-6-(trifluoromethylsulfanyl)imidazo[4,5-c]pyridine]
≥ 80%: mortality at 200 ppm [10] | percent effect (mortality or growth inhibition) at 200 ppm [1] | percent effect (mortality or growth inhibition) at 200 ppm [2] | mortality at 200 ppm [9] | percent effect (mortality or growth inhibition) at 200 ppm [3] | percent control (mortality, anti-feedant effect or growth inhibition) at 200 ppm [4] | percent effect (mortality, anti-feeding or growth inhibition) at 12.5 ppm [5] | pest or weed control at 200 ppm [7]

Reference: patent US10494368B2, “Pesticidally active tetracyclic derivatives with sulfur containing substituents” (Syngenta Participations AG, priority 2015, dated 2019)
